Experimental data published in article PMC3844262 (Journal of immunology (Baltimore, Md. : 1950), 2013).

Columns and labels:
[1] = test system: GP34-A11R cross-reactive T cell lines (TCL #1, #3, #7); format: cell-based, C57BL/6 (B6) mice
[2] = molecular target: H-2K^b (Mus musculus, UniProt P01901); format: binding, murine
[3] = test system: CD8+ T cells from acute day 8 LCMV-infected mice; format: cell-based, C57BL/6 (B6) mice

Sequence of H-2K^b (P01901 whole entry, looked up): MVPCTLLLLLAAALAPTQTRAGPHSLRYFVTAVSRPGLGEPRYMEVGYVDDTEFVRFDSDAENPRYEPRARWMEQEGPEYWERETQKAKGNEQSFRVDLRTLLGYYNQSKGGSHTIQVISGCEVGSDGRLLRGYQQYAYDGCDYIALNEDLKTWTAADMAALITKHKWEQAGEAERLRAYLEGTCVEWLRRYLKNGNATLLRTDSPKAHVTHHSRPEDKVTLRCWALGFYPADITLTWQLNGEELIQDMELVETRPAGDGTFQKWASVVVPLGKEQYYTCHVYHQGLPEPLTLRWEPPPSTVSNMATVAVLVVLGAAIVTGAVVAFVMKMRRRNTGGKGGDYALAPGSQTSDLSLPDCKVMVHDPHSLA

Row | Sequence | CD8+ T cells responding (IFNγ), TCL #7 [1] | Tm of K^b-peptide complex [2] | IFNγ response, % of total CD8+ T cells [3] | IFNγ production ex vivo, acute LCMV-infected mice (OVA hybrid experiment) [3]
1 | SIINFEKL [OVA] | does not cross-react | 51.5 °C |  | 
2 | SIYRYYGL |  |  | not observed | 
3 | SIINFAAL [OVA-AA] | not cross-reactive |  |  | not observed
